Test results taken from patent US20100285959A1, “HERBICIDAL MIXTURES” (priority 2006, published 2010).

Tests used:
[1] = tested on: giant ragweed (AMBTR); assay: Test 2 field trial, preemergence; format: in vivo, Ambrosia trifida; set-up: scale not given here
Text: Corn seeds (hybrid ‘Pioneer 31G96’) were planted in mid spring season, 3.8 cm deep in a clay loam soil having 2% organic matter and a pH of 6.6. Plots were 6.1 m long by 3.0 m wide with rows spaced 76 cm apart. Seeds were spaced 15 cm apart within the rows. The field was managed using conventional tillage practices. […] A few of the weed species could not be evaluated at every timing. […] Results are the means of the three replicates.

[2] = tested on: corn (ZEAMD); assay: Test 9 field trial, emerged weeds before corn planting; format: in vivo, Zea mays ssp. indentata; settings: 57 DAA; g a.i./ha: Cpd 2 100, Glyphosate 1540, Paraquat 1150
Description: Corn seeds (hybrid ‘Pioneer 34M91 RR’) were planted in mid spring season, about 3.8 cm deep in a silty clay loam soil having a pH of 6.7. Plots were 9.1 m long by 3.0 m. The field was managed using no-till practices. […] Compound 2 and paraquat treatments, alone and in combination, also included a surfactant. Glyphosate, alone and with Compound 2, included ammonium sulfate in the treatment mixture. […] The effects on the weeds in the treated plots and untreated control plots were recorded 7, 14, 23, 30 and 57 days after application. Most of the weed species could not be evaluated at every timing. Corn response was only evaluated 57 days after application. […] Results are the means of the three replicates.

[3] = tested on: broadleaf buttonweed (BOILF); assay: Test 12 field trial, preemergence; format: in vivo, Borreria latifolia; set-up: scale not given here; settings: Cpd 2 or Cpd 1 62 g a.i./ha, Diuron 2000 g a.i./ha
Text: (§1) In early-mid spring season, corn seeds (hybrid ‘Pioneer 3041’) were planted 5 cm deep and sugarcane nodes (variety RB-72.454) were planted 10 cm deep in separate plots in a clay soil having 2.6% organic matter and a pH of 5.6. Plots were 24 m long by 1.5 m wide with rows spaced 80 cm (corn) or 140 cm (sugarcane) apart. Corn seeds were spaced 15 cm apart and sugarcane nodes were spaced 10 cm apart within the rows. At the same time, weed seeds were broadcast over the surface of separate plots without a crop, one weed species per plot. The weed plots were rotary tilled to incorporate the weed seeds to a variety of depths. The field was managed using conventional tillage practices.

[4] = tested on: wild poinsettia (EPHHL); assay: Test 12 field trial, preemergence; format: in vivo, Euphorbia heterophylla; set-up: scale not given here; settings: Cpd 2 or Cpd 1 62 g a.i./ha, Diuron 2000 g a.i./ha
Text: as §1

[5] = tested on: wild spikenard (HPYSU); assay: Test 12 field trial, preemergence; format: in vivo; set-up: scale not given here; settings: Cpd 2 or Cpd 1 62 g a.i./ha, Diuron 2000 g a.i./ha
Text: as §1

[6] = tested on: Ipomoea grandiflora (IPOGF); assay: Test 12 field trial, preemergence; format: in vivo; set-up: scale not given here; settings: Cpd 2 or Cpd 1 62 g a.i./ha, Diuron 2000 g a.i./ha
Text: as §1

[7] = tested on: field poppy (PAPRH); assay: Test 23 growth chamber, postemergence; format: in vivo, Papaver rhoeas; settings: 21 DAA
Description: (§2) A test was conducted to evaluate the effects on winter barley (HORVW, Hordeum vulgare L.), winter wheat (TRZAW, Triticum aestivum L.), and several weed species of mixtures of Compound 2 with the commercial herbicides (2,4-dichlorophenoxy)acetic acid (2,4-D) and (4-chloro-2-methylphenoxy)acetic acid (MCPA), auxin mimics. […] Plants were treated postemergence at the 2-4 leaf growth stage, and each treatment was replicated three times. […] Plants were watered as needed. […] Results are means of the three replicates.

[8] = tested on: kochia (KCHSC); assay: Test 23 growth chamber, postemergence; format: in vivo, Kochia scoparia; settings: 21 DAA
Description: as §2

[9] = tested on: galium (GALAP); assay: Test 23 growth chamber, postemergence; format: in vivo, Galium aparine; settings: 21 DAA
Description: as §2

[10] = tested on: common chickweed (STEME); assay: Test 22 growth chamber, postemergence; format: in vivo, Stellaria media; settings: 25 DAA
Description: as §2, with “stage, except KCHSC, SASKR” for “stage,”, “STEME which were in the 4-8 leaf growth stage. Each” for “each”, “one time.” for “three times.”, “from single” for “means of the three”

[11] = tested on: wild buckwheat (POLCO); assay: Test 21 growth chamber, postemergence; format: in vivo, Polygonum convolvulus; settings: 19 DAA
Description: as §2, with “species,” for “species”, “herbicide” for “herbicides”, “(2,4-D), an” for “(2,4-D) and (4-chloro-2-methylphenoxy)acetic acid (MCPA),”, “mimic.” for “mimics.”, “one time.” for “three times.”, “from single” for “means of the three”

[12] = tested on: winter barley (HORVW); assay: Test 19 growth chamber, postemergence; format: in vivo, Hordeum vulgare
Description: A test was conducted to evaluate the effects on winter barley (HORVW, Hordeum vulgare L.) and winter wheat (TRZAW, Triticum aestivum L.) of mixtures of Compound 2 with the commercial herbicide (2,4-dichlorophenoxy)acetic acid (2,4-D), an auxin mimic. […] Plants were treated postemergence at the 3-leaf growth stage, and each treatment was replicated four times. […] Plants were watered as needed. […] Results are the means of the four replicates.

[13] = 18 DAA, g a.i./ha: Cpd 2 25, Atrazine 250
[14] = 18 DAA, g a.i./ha: Cpd 2 50, Atrazine 500
[15] = 18 DAA, g a.i./ha: Cpd 2 75, Atrazine 750
[16] = 18 DAA, g a.i./ha: Cpd 2 100, Atrazine 1000
[17] = 28 DAA, g a.i./ha: Cpd 2 25, Atrazine 250
[18] = 28 DAA, g a.i./ha: Cpd 2 50, Atrazine 500
[19] = 28 DAA, g a.i./ha: Cpd 2 75, Atrazine 750
[20] = 2,4-D or MCPA alone 250 g a.i./ha

In the case of `CCNc1nc(Cl)nc(NC(C)C)n1` [Atrazine, atrazine, reference compound], the “AMBTR Obs” value [1, 13] is reported as 0, the “AMBTR Obs” value [1, 14] is reported as 30 and the “AMBTR Obs” value [1, 15] is reported as 75. The “AMBTR Obs” value [1, 16] was 20, the “AMBTR Obs” value [1, 17] was 10 and the “AMBTR Obs” value [1, 18] was 5. For the same compound, the “AMBTR Obs” value [1, 19] was 65.

For `O=C(O)CNCP(=O)(O)O` [Glyphosate], the “ZEAMD Obs” value [2] was 0%.

`Nc1nc(C2CC2)nc(C(=O)O)c1Cl` [Compound 1, 6-amino-5-chloro-2-cyclopropyl-4-pyrimidinecarboxylic acid] was tested, and the “BOILF Obs” value ([3]; 15 DAA) was 70, the “BOILF Obs” value ([3]; 29 DAA) was 60 and the “BOILF Obs” value ([3]; 48 DAA) was 95. For the same compound, the “BOILF Obs” value ([3]; 61 DAA) was 95, the “EPHHL Obs” value ([4]; 15 DAA) was 40 and the “EPHHL Obs” value ([4]; 29 DAA) was 70. The “EPHHL Obs” value ([4]; 48 DAA) was 50, the “EPHHL Obs” value ([4]; 61 DAA) was 40 and the “HPYSU Obs” value ([5]; 15 DAA) was 60. For the same compound, the “HPYSU Obs” value ([5]; 29 DAA) was 60, the “HPYSU Obs” value ([5]; 48 DAA) was 70 and the “HPYSU Obs” value ([5]; 61 DAA) was 50. For the same compound, the “IPOGF Obs” value ([6]; 15 DAA) was 60, the “IPOGF Obs” value ([6]; 29 DAA) was 70 and the “IPOGF Obs” value ([6]; 48 DAA) was 60. The “IPOGF Obs” value ([6]; 61 DAA) was 40.

With `COC(=O)c1nc(C2CC2)nc(N)c1Cl` [Compound 2, methyl 6-amino-5-chloro-2-cyclopropyl-4-pyrimidinecarboxylate] the “Postemergence PAPRH Obs” value ([7]; Cpd 2 alone 4 g a.i./ha) was 53, the “Postemergence PAPRH Obs” value ([7]; Cpd 2 alone 8 g a.i./ha) was 58 and the “Postemergence PAPRH Obs” value ([7]; Cpd 2 alone 16 g a.i./ha) was 72. The “AMBTR Obs” value [1, 13] was 10, the “AMBTR Obs” value [1, 14] was 30 and the “AMBTR Obs” value [1, 15] was 10. For the same compound, the “AMBTR Obs” value [1, 16] was 45, the “AMBTR Obs” value ([1]; 18 DAA, g a.i./ha: Cpd 2 150, Atrazine 1500) was 65 and the “AMBTR Obs” value [1, 17] was 35. For the same compound, the “AMBTR Obs” value [1, 18] was 30, the “AMBTR Obs” value [1, 19] was 75 and the “AMBTR Obs” value ([1]; 28 DAA, g a.i./ha: Cpd 2 100, Atrazine 1000) was 70. The “Postemergence KCHSC Obs” value ([8]; Cpd 2 alone 4 g a.i./ha) was 53, the “Postemergence KCHSC Obs” value ([8]; Cpd 2 alone 8 g a.i./ha) was 60 and the “Postemergence KCHSC Obs” value ([8]; Cpd 2 alone 16 g a.i./ha) was 70. For the same compound, the “ZEAMD Obs” value [2] was 0%, the “Postemergence GALAP Obs” value ([9]; Cpd 2 alone 4 g a.i./ha) was 60 and the “Postemergence GALAP Obs” value ([9]; Cpd 2 alone 8 g a.i./ha) was 72. For the same compound, the “Postemergence GALAP Obs” value ([9]; Cpd 2 alone 16 g a.i./ha) was 80, the “BOILF Obs” value ([3]; 15 DAA) was 70 and the “BOILF Obs” value ([3]; 29 DAA) was 60. For the same compound, the “BOILF Obs” value ([3]; 48 DAA) was 95, the “BOILF Obs” value ([3]; 61 DAA) was 100 and the “Postemergence STEME Obs” value ([10]; Cpd 2 alone 4 g a.i./ha) was 50. The “Postemergence STEME Obs” value ([10]; Cpd 2 alone 8 g a.i./ha) was 50, the “Postemergence STEME Obs” value ([10]; Cpd 2 alone 16 g a.i./ha) was 55 and the “Postemergence POLCO Obs” value ([11]; Cpd 2 alone 16 g a.i./ha) was 70. For the same compound, the “EPHHL Obs” value ([4]; 15 DAA) was 40, the “EPHHL Obs” value ([4]; 29 DAA) was 60 and the “EPHHL Obs” value ([4]; 48 DAA) was 40. For the same compound, the “EPHHL Obs” value ([4]; 61 DAA) was 40, the “HPYSU Obs” value ([5]; 15 DAA) was 60 and the “HPYSU Obs” value ([5]; 29 DAA) was 60. For the same compound, the “HPYSU Obs” value ([5]; 48 DAA) was 50, the “HPYSU Obs” value ([5]; 61 DAA) was 40 and the “IPOGF Obs” value ([6]; 15 DAA) was 50. For the same compound, the “IPOGF Obs” value ([6]; 29 DAA) was 60, the “IPOGF Obs” value ([6]; 48 DAA) was 40 and the “IPOGF Obs” value ([6]; 61 DAA) was 40. For the same compound, the “HORVW Obs” value ([12]; in vivo) was 45.

With `O=C(O)COc1ccc(Cl)cc1Cl` [2,4-D, (2,4-dichlorophenoxy)acetic acid] the “Postemergence PAPRH Obs” value [7, 20] was 52, the “Postemergence KCHSC Obs” value [8, 20] was 70 and the “Postemergence GALAP Obs” value [9, 20] was 33. For the same compound, the “Postemergence STEME Obs” value [10, 20] was 55, the “Postemergence POLCO Obs” value ([11]; 2,4-D alone 125 g a.i./ha) was 20 and the “Postemergence POLCO Obs” value ([11]; 2,4-D alone 250 g a.i./ha) was 20. For the same compound, the “HORVW Obs” value ([12]; Postemergence, 17 DAA, g a.i./ha: Cpd 2 16, 2,4-D 250) was 15, the “HORVW Obs” value ([12]; Postemergence, 17 DAA, g a.i./ha: Cpd 2 16, 2,4-D 500) was 5 and the “HORVW Obs” value ([12]; Postemergence, 17 DAA, g a.i./ha: Cpd 2 16, 2,4-D 1000) was 10.
